Values joined by “and” are separate entries in the source; they are usually repeats but may differ in a detail not shown here. Equal values may be shown once.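 1) Cells in 96-well plates. 2) Compound, 48 h, 5 concentrations. 3) Linear interpolation between surrounding doses. 4) Unreached endpoint = highest concentration. At the GI50, growth is halved. The concentration for full growth arrest is given as TGI.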
How the values were obtained:
Test in all cases: DTP human tumour cell line panel, 48 h
CCRF-CEM leukemia = tested on: CCRF-CEM leukemia
MDA-MB-231 breast = tested on: MDA-MB-231 breast
HCC-2998 colon = tested on: HCC-2998 colon
HCT-116 colon = tested on: HCT-116 colon
NCI-H226 lung = tested on: NCI-H226 lung
UACC-62 melanoma = tested on: UACC-62 melanoma
SNB-75 CNS = tested on: SNB-75 CNS
786-0 renal = tested on: 786-0 renal
UACC-257 melanoma = tested on: UACC-257 melanoma
KM12 colon = tested on: KM12 colon

SMILES | GI50 (CCRF-CEM leukemia) [µM] | TGI (CCRF-CEM leukemia) [µM] | GI50 (MDA-MB-231 breast) [µM] | TGI (MDA-MB-231 breast) [µM] | GI50 (HCC-2998 colon) | TGI (HCC-2998 colon) | GI50 (HCT-116 colon) | TGI (HCT-116 colon) [µM] | GI50 (NCI-H226 lung) | TGI (NCI-H226 lung) [µM] | GI50 (UACC-62 melanoma) | TGI (UACC-62 melanoma) | GI50 (SNB-75 CNS) | TGI (SNB-75 CNS) | GI50 (786-0 renal) | TGI (786-0 renal) | GI50 (UACC-257 melanoma) | TGI (UACC-257 melanoma) [µM] | GI50 (KM12 colon) | TGI (KM12 colon) [µM]
COc1cccc2c1C(=O)c1c(O)c3c(c(O)c1C2=O)C[C@](O)(C(=O)CO)C[C@H]3O[C@@H]1C[C@@H](NC(=O)CCCN(C)C2(c3ccc(F)cc3)CC3CCC2C3)[C@H](O)[C@@H](C)O1 (stereo not given in full) | 0.927 | 3.29 | 0.771 | 1.54 | 0.826 µM | 1.55 µM | 0.742 µM | 1.47 | 3.53 µM | 15.7 | 0.889 µM | 1.92 µM | 1.09 µM | 9.89 µM | 0.801 µM | 1.57 µM | 0.984 µM | 1.73 |  | 
O=C(COc1ccccc1)NNc1ccccc1 | 8.18 |  | 73.2 | > 300 | 27.2 µM and 26.6 µM | > 300 µM | 207 µM | > 300 | > 92.3 µM and 224 µM | > 300 | 2.71 µM and 5 µM | > 79.5 µM and 91.2 µM | 60.8 µM | 251 µM | > 68.5 µM and 66.1 µM | > 300 µM |  |  | 9.03 µM and 6.49 µM | > 300
COc1cc2c3c(n(CCCN=[N+]=[N-])c(=O)c2cc1OC)-c1ccccc1C3=O | 3.37 | > 100 | > 100 | > 100 | 94.2 µM | > 100 µM | 1.81 µM | 17.8 |  |  | 2.63 µM | 27.6 µM | 2.53 µM | 8.49 µM | 4.68 µM | 69.2 µM |  |  | > 100 µM | > 100
CCOc1ccc(-c2nc3ccc(-c4nc5ccc(N6CCN(C)CC6)cc5[nH]4)cc3[nH]2)cc1 | 0.316 | 1.87 | 1.25 | 2.6 | 0.267 µM and 0.196 µM | 0.543 µM and 0.415 µM | 0.0397 µM | 0.26 | 0.648 µM | 2.25 | 0.511 µM | 1.96 µM | 0.131 µM | 0.354 µM | 0.527 µM and 0.198 µM | 1.57 µM and 0.809 µM |  |  | 0.999 µM | 2.15
CCCCCCOC(=O)CC1=C(C)/C(=C/c2[nH]c(-c3ccc[nH]3)cc2OC)N=C1C | 0.0256 | 1.56 | 0.0336 | 0.626 |  |  | 0.0311 µM | 1.05 | 0.137 µM | 1.06 |  |  | 0.0372 µM | 0.3 µM | 0.0829 µM | 1.16 µM | 0.394 µM | 1.51 | 0.0535 µM | 1.4
Nc1nc(-c2cccnc2)cc(-c2cc(-c3cccnc3)nc(N)n2)n1 |  | > 100 |  | > 100 |  | > 100 µM |  | > 100 |  | > 100 |  | > 100 µM |  |  |  | > 100 µM |  | > 100 |  | > 100
COc1ccc(O)c(/C=N\Nc2ccccc2)c1 |  |  |  | > 100 |  | 5.33 µM |  | > 100 |  | > 100 |  | 12.3 µM |  | > 100 µM |  | > 100 µM |  | > 100 |  | 
COC(=O)[C@H](Cc1cn(C)cn1)NC(=O)[C@H](CC(C)C)NC(=O)Nc1cc(C(F)(F)F)cc(C(F)(F)F)c1 |  |  | 4.64 | > 10 | 5.62 µM | > 10 µM | 2.14 µM | 4.14 | > 10 µM | > 10 | > 10 µM | > 10 µM | > 10 µM | > 10 µM | > 10 µM | > 10 µM |  |  | > 10 µM | > 10
CCn1nc(C2CCN(C(=O)CCO)CC2)nc1-c1cnc(N)c(-c2nnc(C(C)(C)C)o2)n1 | 18.2 | > 100 | 15.1 | 68.2 | 10.7 µM | > 100 µM | 18.8 µM | 58.7 | 25.8 µM | > 100 | 2.07 µM | > 100 µM | 0.155 µM | > 100 µM | 3.11 µM | > 100 µM |  |  | 14.9 µM | 45.1
CC(=O)OCC1OC(SC2=N/C(=C\c3ccc(Br)s3)C(=O)N2c2ccccc2)C(OC(C)=O)C(OC(C)=O)C1OC(C)=O (stereo not given) |  |  |  | > 100 |  | > 100 µM | 25.5 µM and 61.2 µM | > 100 | 46.9 µM and 15.7 µM | > 100 |  | > 100 µM | 25.1 µM and > 100 µM | 61.4 µM and > 100 µM | 17.8 µM and > 100 µM | 55.4 µM and > 100 µM | > 100 µM and 42.5 µM | > 100 | > 100 µM and 44.3 µM | > 100
COc1ccc(C(=O)/C=C/c2cc(-c3ccc(OC)c(OC)c3)n[nH]2)cc1OC | 0.364 | 5.52 | 1.88 | 6.38 | 1.74 µM | 3.19 µM |  |  | 1.66 µM | 4.23 |  |  | 1.16 µM | 2.96 µM | 1.81 µM | 5.14 µM | 2.16 µM | 5.02 | 0.625 µM | 2.08
N#Cc1c(N)nc2c(c1-c1ccc(Cl)cc1)COc1ccc(F)cc1-2 | 44.2 | > 100 | 11.9 | 51.8 | 23.3 µM | 68.8 µM | 36.8 µM | > 100 |  |  | 15.1 µM | 34.2 µM | > 100 µM | > 100 µM | 28.7 µM | 72.8 µM | 29.4 µM | 90.8 | 29.4 µM | 80
COC(=O)c1c2c(c(C)[n+]([O-])c1C)C(=O)C(NCc1ccccc1)=CC2=O | 2.98 | 22.3 |  |  | 2.8 µM | 7.98 µM | 2.47 µM | 9.48 | 2.81 µM | 9.9 | 1.8 µM | 3.56 µM | 3.62 µM | 13.9 µM | 3.68 µM | 23.7 µM | 1.7 µM | 4.02 | 2.4 µM | 9.6
CCCCCSc1ccc2nc(NC(=O)OCC)sc2c1 | 0.628 | > 100 | 0.95 | > 100 | 4.88 µM | > 100 µM | 0.466 µM | > 100 | 1.95 µM | > 100 |  |  | 0.41 µM | 20.2 µM | 0.541 µM | > 100 µM | > 100 µM | > 100 | 0.409 µM | > 100
COc1ccc(C2(Cl)C(Cl)(C(F)(F)F)C2(Cl)C(F)(F)F)cc1 (stereo not given) |  | 33.2 |  |  |  | 29.8 µM |  | 23.9 |  | 28.9 |  | 26.4 µM |  | 28 µM |  | 31 µM |  | 26.5 |  | 27

Reference: PubChem BioAssay (NCI)
